Structures are written as SMILES. ± gives the expanded uncertainty stated by the source.

For data set [1] the following is noted: Crystal; DTA.
A short description of data set [2]: Molar enthalpy of transition or fusion. To be noted: Crystal; DSC.

For the molecule `COc1cc(CNC(=O)CCCCCCC(C)C)ccc1O` [N-(4-hydroxy-3-methoxybenzyl)-8-methylnonanamide], the Normal melting temperature in data set [1] was 59.4 ± 1.1 °C. Besides, in data set [2], the “Molar enthalpy of transition or fusion” value turned out to be 4.54 ± 0.136 kcal/mol.
